US20230255966A1, “A COMBINATION OF A CBP/P300 BROMODOMAIN INHIBITOR AND AN EGFR INHIBITOR FOR USE IN TREATING EGFR-MUTANT NSCLC” (TOLREMO THERAPEUTICS AG, priority 2020, published 2023)
pKd: −log10 of the molar value.

Experiments:
[1] = target: T1, BRD2(1) (Homo sapiens, UniProt P25440); test: BROMOscan BromoKdMAX; type: binding
T1 construct: T7 phage strains displaying bromodomains were grown in parallel; purchased DiscoverX; host or cells: T7 phage in E. coli host derived from BL21
Protocol: (§1) A BromoKdMAX was performed at DiscoverX.
(§2) The assay principle is the following: BROMOscan™ is a novel industry leading platform for identifying small molecule bromodomain inhibitors. Based on proven KINOMEscan™ technology, BRO-MOscan™ employs a proprietary ligand binding site-directed competition assay to quantitatively measure interactions between test compounds and bromodomains.
(§3) The assay was conducted as follows: For the Bromodomain assays, T7 phage strains displaying bromodomains were grown in parallel in 24-well blocks in an E. coli host derived from the BL21 strain. E. coli were grown to log-phase and infected with T7 phage from a frozen stock (multiplicity of infection=0.4) and incubated with shaking at 32° C. until lysis (90-150 minutes). The lysates were centrifuged (5,000×g) and filtered (0.2 μm) to remove cell debris. […] The liganded beads were blocked with excess biotin and washed with blocking buffer (SeaBlock (Pierce), 1% BSA, 0.05% Tween 20, 1 mM DTT) to remove unbound ligand and to reduce non-specific phage binding. […] Test compounds were prepared as 1000× stocks in 100% DMSO. Kds were determined using an 11-point 3-fold compound dilution series with one DMSO control point. […] The compounds were then diluted directly into the assays such that the final concentration of DMSO was 0.09%. All reactions performed in polypropylene 384-well plates. Each was a final volume of 0.02 ml. […] The bromodomain concentration in the eluates was measured by qPCR.

[2] = target: T2, BRD2(1, 2) (Homo sapiens, UniProt P25440); test: BROMOscan BromoKdMAX; type: binding
T2 construct: T7 phage strains displaying bromodomains were grown in parallel; purchased DiscoverX; host or cells: T7 phage in E. coli host derived from BL21
T2 sequence (P25440 71-455 limits assumed): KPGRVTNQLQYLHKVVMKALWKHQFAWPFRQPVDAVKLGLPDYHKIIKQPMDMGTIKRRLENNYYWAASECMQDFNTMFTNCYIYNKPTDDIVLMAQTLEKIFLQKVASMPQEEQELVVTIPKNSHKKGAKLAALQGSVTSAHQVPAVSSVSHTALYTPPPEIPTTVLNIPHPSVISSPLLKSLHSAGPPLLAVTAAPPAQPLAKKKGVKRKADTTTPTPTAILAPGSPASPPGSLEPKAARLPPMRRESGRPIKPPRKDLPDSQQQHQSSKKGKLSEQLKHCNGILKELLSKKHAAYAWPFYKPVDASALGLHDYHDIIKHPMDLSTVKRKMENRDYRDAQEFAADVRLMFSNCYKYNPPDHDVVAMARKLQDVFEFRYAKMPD
Protocol: as §1, §2, §3

[3] = target: T3, BRD2(2) (Homo sapiens, UniProt P25440); test: BROMOscan BromoKdMAX; type: binding
T3 construct: T7 phage strains displaying bromodomains were grown in parallel; purchased DiscoverX; host or cells: T7 phage in E. coli host derived from BL21
T3 sequence (P25440 344-453 limits assumed): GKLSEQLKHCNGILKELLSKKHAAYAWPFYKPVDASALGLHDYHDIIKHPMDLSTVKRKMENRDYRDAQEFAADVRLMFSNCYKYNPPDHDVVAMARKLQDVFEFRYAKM
Protocol: as §1, §2, §3

[4] = target: T4, BRD4(1) (Homo sapiens, UniProt O60885); test: BROMOscan BromoKdMAX; type: binding
T4 construct: T7 phage strains displaying bromodomains were grown in parallel; purchased DiscoverX; host or cells: T7 phage in E. coli host derived from BL21
Protocol: as §1, §2, §3

[5] = target: T5, BRD4(1, 2) (Homo sapiens, UniProt O60885); test: BROMOscan BromoKdMAX; type: binding
T5 construct: T7 phage strains displaying bromodomains were grown in parallel; purchased DiscoverX; host or cells: T7 phage in E. coli host derived from BL21
Protocol: as §1, §2, §3

[6] = target: T6, BRD4(2) (Homo sapiens, UniProt O60885); test: BROMOscan BromoKdMAX; type: binding
T6 construct: T7 phage strains displaying bromodomains were grown in parallel; purchased DiscoverX; host or cells: T7 phage in E. coli host derived from BL21
Protocol: as §1, §2, §3

[7] = target: T7, BRD4(full-length, short-iso.) (Homo sapiens, UniProt O60885); test: BROMOscan BromoKdMAX; type: binding
T7 construct: BRD4 (full-length, short-iso.); purchased DiscoverX; host or cells: T7 phage in E. coli host derived from BL21 (general protocol)
Protocol: as §1, §2, §3

[8] = target: T8, BRD7 (Homo sapiens, UniProt Q9NPI1); test: BROMOscan BromoKdMAX; type: binding
T8 construct: T7 phage strains displaying bromodomains were grown in parallel; purchased DiscoverX; host or cells: T7 phage in E. coli host derived from BL21
T8 sequence (Q9NPI1 131-235 limits assumed): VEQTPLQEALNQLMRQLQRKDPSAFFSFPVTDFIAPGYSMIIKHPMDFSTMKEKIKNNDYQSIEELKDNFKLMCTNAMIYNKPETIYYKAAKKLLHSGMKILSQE
Protocol: as §1, §2, §3

[9] = target: T9, BRD8(1) (Homo sapiens, UniProt Q9H0E9); test: BROMOscan BromoKdMAX; type: binding
T9 construct: T7 phage strains displaying bromodomains were grown in parallel; purchased DiscoverX; host or cells: T7 phage in E. coli host derived from BL21
T9 sequence (Q9H0E9 706-811 limits assumed): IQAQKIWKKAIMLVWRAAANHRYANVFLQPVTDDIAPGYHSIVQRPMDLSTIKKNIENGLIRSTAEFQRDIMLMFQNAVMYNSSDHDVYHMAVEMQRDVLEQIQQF
Protocol: as §1, §2, §3

[10] = target: T10, BRD8(2) (Homo sapiens, UniProt Q9H0E9); test: BROMOscan BromoKdMAX; type: binding
T10 construct: T7 phage strains displaying bromodomains were grown in parallel; purchased DiscoverX; host or cells: T7 phage in E. coli host derived from BL21
T10 sequence (Q9H0E9 1099-1207 limits assumed): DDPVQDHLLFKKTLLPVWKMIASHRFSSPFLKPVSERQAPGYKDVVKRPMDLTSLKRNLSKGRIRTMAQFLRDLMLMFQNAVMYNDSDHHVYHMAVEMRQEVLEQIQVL
Protocol: as §1, §2, §3

[11] = target: T11, BRD9 (Homo sapiens, UniProt Q9H8M2); test: BROMOscan BromoKdMAX; type: binding
T11 construct: T7 phage strains displaying bromodomains were grown in parallel; purchased DiscoverX; host or cells: T7 phage in E. coli host derived from BL21
T11 sequence (Q9H8M2 136-240 limits assumed): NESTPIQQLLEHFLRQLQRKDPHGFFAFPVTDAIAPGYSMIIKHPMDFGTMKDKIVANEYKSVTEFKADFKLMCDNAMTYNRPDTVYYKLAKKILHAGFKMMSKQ
Protocol: as §1, §2, §3

[12] = target: T12, BRDT(1) (Homo sapiens, UniProt Q58F21); test: BROMOscan BromoKdMAX; type: binding
T12 construct: T7 phage strains displaying bromodomains were grown in parallel; purchased DiscoverX; host or cells: T7 phage in E. coli host derived from BL21
Protocol: as §1, §2, §3

[13] = target: T13, BRDT(1, 2) (Homo sapiens, UniProt Q58F21); test: BROMOscan BromoKdMAX; type: binding
T13 construct: T7 phage strains displaying bromodomains were grown in parallel; purchased DiscoverX; host or cells: T7 phage in E. coli host derived from BL21
Protocol: as §1, §2, §3

[14] = target: T14, BRDT(2) (Homo sapiens, UniProt Q58F21); test: BROMOscan BromoKdMAX; type: binding
T14 construct: T7 phage strains displaying bromodomains were grown in parallel; purchased DiscoverX; host or cells: T7 phage in E. coli host derived from BL21
Protocol: as §1, §2, §3

[15] = target: T15, BRPF1 (Homo sapiens, UniProt P55201); test: BROMOscan BromoKdMAX; type: binding
T15 construct: T7 phage strains displaying bromodomains were grown in parallel; purchased DiscoverX; host or cells: T7 phage in E. coli host derived from BL21
T15 sequence (P55201 628-732 limits assumed): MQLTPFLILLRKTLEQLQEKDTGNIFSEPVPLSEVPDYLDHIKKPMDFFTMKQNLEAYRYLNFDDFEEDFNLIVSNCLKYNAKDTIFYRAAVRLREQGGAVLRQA
Protocol: as §1, §2, §3

[16] = target: T16, CECR2 (Homo sapiens, UniProt Q9BXF3); test: BROMOscan BromoKdMAX; type: binding
T16 construct: T7 phage strains displaying bromodomains were grown in parallel; purchased DiscoverX; host or cells: T7 phage in E. coli host derived from BL21
T16 sequence (Q9BXF3 434-538 limits assumed): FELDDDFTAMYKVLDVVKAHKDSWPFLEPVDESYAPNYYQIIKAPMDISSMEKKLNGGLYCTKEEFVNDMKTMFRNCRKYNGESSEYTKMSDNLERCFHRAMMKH
Protocol: as §1, §2, §3

[17] = target: T17, PCAF (Homo sapiens, UniProt Q92831); test: BROMOscan BromoKdMAX; type: binding
T17 construct: T7 phage strains displaying bromodomains were grown in parallel; purchased DiscoverX (BROMOscan / BromoKdMAX service); host or cells: T7 phage in E. coli host derived from BL21
T17 sequence (Q92831 723-827 limits assumed): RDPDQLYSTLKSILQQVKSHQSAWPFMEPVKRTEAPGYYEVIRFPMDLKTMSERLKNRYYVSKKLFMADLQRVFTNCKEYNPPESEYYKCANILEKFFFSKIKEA
Protocol: as §1, §2, §3

[18] = target: T18, TAF1(2) (Homo sapiens, UniProt P21675); test: BROMOscan BromoKdMAX; type: binding
T18 construct: T7 phage strains displaying bromodomains were grown in parallel; purchased DiscoverX (BROMOscan / BromoKdMAX service); host or cells: T7 phage in E. coli host derived from BL21
T18 sequence (P21675 1519-1628 limits assumed): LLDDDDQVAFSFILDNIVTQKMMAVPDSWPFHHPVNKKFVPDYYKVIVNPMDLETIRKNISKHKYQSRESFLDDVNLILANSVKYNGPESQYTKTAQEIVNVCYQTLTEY
Protocol: as §1, §2, §3

[19] = target: T19, TAF1L(2) (Homo sapiens, UniProt Q8IZX4); test: BROMOscan BromoKdMAX; type: binding
T19 construct: T7 phage strains displaying bromodomains were grown in parallel; purchased DiscoverX (BROMOscan / BromoKdMAX service); host or cells: T7 phage in E. coli host derived from BL21
T19 sequence (Q8IZX4 1517-1626 limits assumed): as the sequence (P21675 1519-1628 limits assumed) above, with V46M, M51V, V102I, L107I counted along it
Protocol: as §1, §2, §3

[20] = target: T20, TRIM24(Bromo.) (Homo sapiens, UniProt O15164); test: BROMOscan BromoKdMAX; type: binding
T20 construct: TRIM24(Bromo.); purchased DiscoverX (BROMOscan / BromoKdMAX service); host or cells: T7 phage in E. coli host derived from BL21
T20 sequence (O15164 899-1004 limits assumed): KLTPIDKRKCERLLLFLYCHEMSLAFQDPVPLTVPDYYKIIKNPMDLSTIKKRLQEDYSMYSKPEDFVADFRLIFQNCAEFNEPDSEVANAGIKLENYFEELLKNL
Protocol: as §1, §2, §3

[21] = target: T21, TRIM24(PHD, Bromo.) (Homo sapiens, UniProt O15164); test: BROMOscan BromoKdMAX; type: binding
T21 construct: TRIM24(PHD, Bromo.); purchased DiscoverX (BROMOscan / BromoKdMAX service); host or cells: T7 phage in E. coli host derived from BL21
T21 sequence (O15164 824-1006 limits assumed): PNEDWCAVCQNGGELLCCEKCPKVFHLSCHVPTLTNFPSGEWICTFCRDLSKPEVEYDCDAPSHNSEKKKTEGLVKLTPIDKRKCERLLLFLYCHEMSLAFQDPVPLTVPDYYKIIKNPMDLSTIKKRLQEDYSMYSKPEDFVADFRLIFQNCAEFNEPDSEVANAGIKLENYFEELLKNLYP
Protocol: as §1, §2, §3

[22] = target: T22, WDR9(2) (Homo sapiens, UniProt Q9NSI6); test: BROMOscan BromoKdMAX; type: binding
T22 construct: T7 phage strains displaying bromodomains were grown in parallel; purchased DiscoverX (BROMOscan / BromoKdMAX service); host or cells: T7 phage in E. coli host derived from BL21
T22 sequence (Q9NSI6 1313-1418 limits assumed): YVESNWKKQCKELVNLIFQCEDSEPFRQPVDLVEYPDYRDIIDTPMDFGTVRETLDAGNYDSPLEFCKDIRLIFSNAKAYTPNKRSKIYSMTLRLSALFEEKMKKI
Protocol: as §1, §2, §3

[23] = test system: HCC827 cells; test: Gene expression analysis (qPCR of ALPP and HOPX); type: cell-based; conditions: HCC827, 1 μM CBP/p300 inhibitor in presence of Gefitinib, 24 h
Protocol: (§4) Equal amount of cDNA was then subjected to qPCR analysis using the Kapa SYBR fast kit (KK4611) in a 384 well format in a Roche Light Cycler 480. Gene expression of genes was evaluated by subtraction of housekeeping gene CT-values (b-Actin) from CT of the genes of interest, and by calculating the ΔΔCT by subtracting the DMSO control value from sample of interest to finally calculate fold change differences of treated versus control treated sample.
(§5) Data is from 2 independent experiments with qPCRs in duplicate (mean±SEM) (FIG. 1C-D).

[24] = test system: NCI-H1975 cells; test: Gene expression analysis (qPCR of ALPP and HOPX); type: cell-based; conditions: NCI-H1975, 1 μM CBP/p300 inhibitor in presence of 20 nM osimertinib, 24 h
Protocol: as §4, §5

[25] = test system: NCI-H1975 cells; test: Label-free determination of cell proliferation (CELIGO); type: cell-based

T1 sequence (P25440 74-180 limits assumed): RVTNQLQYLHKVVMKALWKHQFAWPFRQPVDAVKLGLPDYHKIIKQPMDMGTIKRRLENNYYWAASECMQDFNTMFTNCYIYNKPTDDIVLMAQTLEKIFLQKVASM

CO[C@H]1CC[C@H](n2c([C@@H]3CCCC(=O)N3c3ccc(F)c(F)c3)nc3cc(-c4c(C)noc4C)ccc32)CC1 [CCS1477]
pKd [1]: 6.64 | pKd [2]: 6.21 | pKd [3]: 5.68 | pKd [4]: 6.60 | pKd [5]: 5.16 | pKd [6]: 5.28 | pKd [7]: 6.36 | pKd [8]: 5.29 | pKd [9]: < 5.00 | pKd [10]: < 5.00 | pKd [11]: 6.10 | pKd [12]: 6.41 | pKd [13]: 5.62 | pKd [14]: 5.05 | pKd [15]: 5.85 | pKd [16]: < 5.00 | pKd [17]: < 5.00 | pKd [18]: 5.10 | pKd [19]: < 5.00 | pKd [20]: 6.17 | pKd [21]: 5.72 | pKd [22]: < 5.00 | EGFR inhibitor induced gene expression (ALPP, HOPX) [23]: reverse EGFR inhibitor induced gene expression | EGFR inhibitor induced gene expression (ALPP, HOPX) [24]: reverse EGFR inhibitor induced gene expression | Growth long-term ([25]; NCI-H1975, 50 nM osimertinib with 2.0, 0.5 or 0.125 μM co-treatment (FIG. 5)): delayed | Effect on cell numbers on their own ([25]; NCI-H1975, 2 μM single agent (FIG. 5)): no/weak effect on cell numbers
